Measured values as given in patent US4728656A, “2,2-alkyldiylbis(thio)bis(imidazoles) useful for inhibition of the 5-lipoxygenase pathway” (SmithKline Beckman Corporation, priority 1986, dated 1988).
pIC50: −log10 of the molar value. Where two headings read alike, the source gives them in different places. Blank lines part the entries; values can stand above or below the compound they belong to.

What was measured:
5-Lipoxygenase = biological target: T1, 5-Lipoxygenase (Rattus norvegicus, UniProt P12527); assay: Assay of 5-lipoxygenase activity in RBL-1 cell extract (high speed supernatant); format: biochemical; conditions: 25 μM arachidonic acid, 5 min at 37° C.
T1 construct: The broken cell extract was then centrifuged at 10,000×g for 20 minutes (min) and the supernatant centrifuge at 100,000×g for 60 min; host or cells: RBL-1 cells, high speed (100,000×g) supernatant
T1 sequence (P12527 1-673): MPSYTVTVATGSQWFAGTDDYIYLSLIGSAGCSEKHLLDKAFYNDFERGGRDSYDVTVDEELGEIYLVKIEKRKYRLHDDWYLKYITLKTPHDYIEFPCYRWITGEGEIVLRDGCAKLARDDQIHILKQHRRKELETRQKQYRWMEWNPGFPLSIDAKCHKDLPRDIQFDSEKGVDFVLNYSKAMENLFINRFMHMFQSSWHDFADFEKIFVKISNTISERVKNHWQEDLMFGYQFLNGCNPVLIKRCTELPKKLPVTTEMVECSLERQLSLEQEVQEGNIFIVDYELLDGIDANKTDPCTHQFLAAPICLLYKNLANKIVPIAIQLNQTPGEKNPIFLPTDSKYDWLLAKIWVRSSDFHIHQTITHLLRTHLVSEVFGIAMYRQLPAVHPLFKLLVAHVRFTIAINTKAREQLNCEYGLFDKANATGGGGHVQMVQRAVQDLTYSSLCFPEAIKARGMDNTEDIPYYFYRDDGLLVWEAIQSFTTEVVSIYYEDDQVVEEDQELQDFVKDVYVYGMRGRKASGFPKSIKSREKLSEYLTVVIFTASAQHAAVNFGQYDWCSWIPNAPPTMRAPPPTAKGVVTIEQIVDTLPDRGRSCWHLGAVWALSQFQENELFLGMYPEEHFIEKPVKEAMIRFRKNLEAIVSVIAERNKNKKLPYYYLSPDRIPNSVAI
Experimental: For in vitro experiments, compounds were dissolved at appropriate concentrations in ethanol (final concentration 1.0%) and then diluted to final concentrations using the buffers indicated in the text.
The activities of these enzymes in extracts of RBL-1 cells were assayed using the method of Jakschik and Lee, Nature, 287, 51-52 (1980). RBL--1 cells were obtained from the American Type Culture Collection (#CRL 1378) and were grown at 37° C. (5% CO2 in air) in spinner culture in MEM supplemented with 10% heat inactivated fetal calf serum. Harvested cells were washed with 50 mM sodium phosphate buffer, pH 7.0, containing 1 mM EDTA and 0.1% gelatin, resuspended in fresh buffer (5×10^7 cells/ml) and disrupted by nitrogen cavitation using the Parr bomb at 750 psi for 10 min. The broken cell extract was then centrifuged at 10,000×g for 20 minutes (min) and the supernatant centrifuge at 100,000×g for 60 min. Aliquots (0.25 mls) of the supernatant were preincubated with or without drugs for 10 min, after which 12 mM CaCl2 was added and the reaction was initiated with […] arachidonic acid-1-^14 C (final concentration was 25 μM; specific activity 20,000 dpm/nmole). After incubation for 5 min at 37° C., the reaction was terminated by addition of 2 volumes (0.5 ml) ice cold acetone and the sample was allowed to deproteinize on ice for 10 min prior to centrifugation at 1,000×g for 10 min. The deproteinized supernatant was adjusted to pH 3.5 with 2N formic acid and extracted with 2 volumes of ice cold ethyl acetate. The extracted samples were dried under argon, redissolved in ethyl acetate and applied to Whatman LK5D thin layer chromatography (TLC) plates which were developed using the A-9 solvent system [organic phase of ethyl acetate: 2,2,5-trimethylpentane:acetic acid:water (110:50:20:10)] described by Hamberg and Samuelsson, J. Biol. Chem., 241, 257-263 (1966). Arachidonic acid, 5-HETE, LTB4 and PGD2 were quantified with a Berthold LB 2832 autoscanner.
Under these conditions, only the 5-lipoxygenase pathway metabolites were detectable. The 5-HETE and di-HETEs were formed at a linear rate, and substantial amounts of the arachidonic acid-1-^14 C substrate were utilized.
Drug-induced effects on enzyme activities are described as the concentration of drug causing a 50% inhibition of metabolite synthesis (IC50).

[1] = test system: Arachidonic Acid-Induced Mouse Ear Inflammation; assay: Arachidonic acid-induced mouse ear inflammation (ear swelling); format: in vivo, male Balb/c mice; design: key to % Inhibition of Ear Swelling: *: p < .05; **: p < .01; ***: p < .001; NS: not significant; conditions: p.o.
Experimental: In the following Examples male Balb/c mice (20-28 g) were used. All mice were obtained from Charles River Breeding Laboratories, Kingston, N.Y. Within a single experiment, mice were sex and age matched.
Compounds of Formula (I), indomethacin, naproxen, and ibuprofen were each used as the free base. The compounds were homogenized in 0.5% tragacanth. Compounds were administered by gavage at the indicated dose in a final volume of 10 ml/kg.
Arachidonic acid in acetone (2 mg/20 μl ) was applied to the inner surface of the left ear. The thickness of both ears was then measured with a dial micrometer one hour after treatment, and the data were expressed as the change in thickness (10^-3 cm) between treated and untreated ears.
Test compounds were given orally in 0.5% tragacanth at the times indicated in the text prior to the topical application of arachidonic acid.
Parenteral administration of compound was accomplished by subcutaneous injection of solution as indicated.

lipoxygenase = conditions: in vitro; cited from earlier work
psoriasis = conditions: Allen et al.; cited from earlier work
[2] = test system: LTB4 and 5-HETE production; conditions: in vitro; Stenson et al.; cited from earlier work
rheumatoid arthritis = conditions: preliminary observation; Neumann et al.; cited from earlier work
myocardial infarction = conditions: dogs; Mollane et al.; cited from earlier work
[3] = 5HETE production by RBL1 high speed supernatant, read-out: 5-HETE IC50
[4] = LTB4 production by RBL1 high speed supernatant, read-out: LTB4 IC50

pIC50 (5-Lipoxygenase; [3]): 4.73
pIC50 (5-Lipoxygenase; [4]): 5.48
SMILES: Fc1ccc(-c2nc(SCCSc3nc(-c4ccc(F)cc4)c(-c4ccc(F)cc4)[nH]3)[nH]c2-c2ccc(F)cc2)cc1 [Compound 1, 2,2'-[ethanediylbis(thio)]bis[4,5-bis(4-fluorophenyl)-1H-imidazole]]

SMILES: COc1ccc2c(c1)c(CC(=O)O)c(C)n2C(=O)c1ccc(Cl)cc1 [indomethacin]
antiinflammatory activity ([1]; 10 mg/kg): did not exhibit detectaole antiinflammatory activity

SMILES: CC(C)Cc1ccc(C(C)C(=O)O)cc1 (stereo not shown) [ibuprofen]
antiinflammatory activity ([1]; 250 mg/kg): did not exhibit detectaole antiinflammatory activity

pIC50 (5-Lipoxygenase; [3]): 5.28
pIC50 (5-Lipoxygenase; [4]): 5.80
SMILES: O=C(CSc1nc(-c2ccc(F)cc2)c(-c2ccc(F)cc2)[nH]1)CSc1nc(-c2ccc(F)cc2)c(-c2ccc(F)cc2)[nH]1 [Compound 3, 2,2'-[1,3-propan-2-onediylbis(thio)]bis[4,5-bis-(4-fluorophenyl)-1H-imidazole]]

pIC50 (5-Lipoxygenase; [3]): 5.77
pIC50 (5-Lipoxygenase; [4]): 6.19
SMILES: O=C(CSc1nc(-c2ccc(F)cc2)c(-c2ccncc2)[nH]1)CSc1nc(-c2ccc(F)cc2)c(-c2ccncc2)[nH]1 [Compound 2, 2-2'-[1,3-propan-2-onediylbis(thio)]bis[5-(4-pyridyl)-4-(4-fluorophenyl)-1H-imidazole]]
% Inhibition of Ear Swelling ([1]; Table I, 2 mg arachidonic acid, thickness 1 h after treatment): NS

SMILES: CC(C(=O)O)c1ccc2oc(-c3ccc(Cl)cc3)nc2c1 (stereo not shown) [benoxaprofen]
lipoxygenase inhibitory activity (lipoxygenase): in vitro lipoxygenase inhibitory activity
effect on psoriasis (psoriasis): promising effect

SMILES: COc1ccc2cc([C@H](C)C(=O)O)ccc2c1 [naproxen]
antiinflammatory activity ([1]; 100 mg/kg): did not exhibit detectaole antiinflammatory activity

SMILES: O=C(O)c1cc(/N=N/c2ccc(S(=O)(=O)Nc3ccccn3)cc2)ccc1O [Sulfasalazine]
inhibition of LTB4 and 5-HETE production [2]: inhibit LTB4 and 5-HETE production in vitro
efficacy in rheumatoid arthritic patients (rheumatoid arthritis): efficacy, including remission

SMILES: NC1=NN(c2cccc(C(F)(F)F)c2)CC1 [BW755-C]
area of infarction following coronary occlusion (myocardial infarction): reduced
leukocyte infiltration into the ischaemic tissue (myocardial infarction): inhibition of leukocyte infiltration into the ischaemic tissue
